What was measured:
Assay type in all cases: cell-based
[1] = tested on: Pseudokircheneriella subcapitata; assay: Algae growth inhibition, area under growth curve, P. subcapitata; conditions: 72 hours after exposure, various simazine concentrations (FIG. 13)
Method: In the present embodiment, the area under the growth curve is the area under the growth curve obtained by culturing 6 mL of an P. subcapitata cell suspension, adjusted to have an absorbance at 750 nm of 0.01, under a white fluorescent lamp (50 μmol·m−2·s−1) for 72 hours after chemical substance exposure and measuring, every 24 hours, the cell density as the absorbance at 750 nm.

[2] = tested on: Pseudokircheneriella subcapitata; assay: Delayed luminescence of P. subcapitata exposed to simazine, fitted by Formula (1); parameters: key to Computed value E: E computed by Formula (2) from fitted coefficients ai, bi, ci; conditions: for luminescence amount of delayed luminescence, exposed vs not exposed: 15 minutes after exposure (FIG. 14); for Fitting formula value a1 / Fitting formula value a2 / Fitting formula value a3 / Fitting formula value b1 / Fitting formula value b2 / Fitting formula value b3 / Fitting formula value c1 / Fitting formula value c2 / Fitting formula value c3: 15 minutes after exposure; for Computed value E: Formula (2) from coefficients of Table 2; for Area value (quadrature by parts): third function f3(t), t=0 to 90, Δt 0.1
Method: In the present example, the measurement of delayed luminescence was carried out as follows. 2.5 mL of a P. subcapitata cell suspension, adjusted to have an absorbance at 660 nm of 0.2 in a general, 10×10 mm spectrometric cell, was exposed to simazine of any of various concentrations and left to stand for 15 minutes under a white fluorescent lamp of a light amount of 50 μmol·m−2·s−1. Thereafter, inside the measuring device 10, a red light (660 nm) of approximately 300 μmol·m−2·s−1 was illuminated for 10 seconds from the light source 18 as the excitation light for making delayed luminescence be emitted and then the delayed luminescence emitted after extinguishing of the excitation light was recorded for 50 seconds at 0.1 second intervals.
In the present example, the above-described Formula (1) was used for fitting. As examples for description of the fitting results, the measurement result for the “Not exposed” case is shown in FIG. 15A and a graph of the results of fitting to the measurement data are shown in FIG. 15B. In FIG. 15B, f1(t), f2(t), and f3(t) are respectively the first function, the second function, and the third function in Formula (1). From FIG. 15, it can be understood that the delayed luminescence measurement data can be fitted by a plurality of hill-shaped function.
By the fitting, the function coefficients, ai, bi, and ci (i=1, 2, 3) are determined.
As another example of the evaluating step, a case of evaluating by an evaluation value computed based on a computation formula shall be described. As the evaluation value, an evaluation value E is computed from the determined coefficient values ai, bi, and ci (i=1, 2, 3) and based on Formula (2) described above. Here, the constants mj (j=1 to 9) are set, for example, so that m1=1/a3, m2=1, m3=1, m4=1/a2, m5=1/b2, m6=1/c2, m7=1, m8=1/a1, m9=1/c1. As the constants mj, those that are appropriate according to the measurement conditions and algae species can be set. If instead of using all of the coefficient values, only a portion is to be used as described above, a reciprocal of a coefficient value, such as 1/a3, is set to the corresponding mj (j=1 to 9) for each coefficient value to be ignored.
As another example of the evaluating step, a case of evaluating by an area value computed based on the coefficient values of a function shall be described. As mentioned above, the area value is the value of the area of a region surrounded by the curve indicating the function value in the function graph and the time axis line positioned below the curve indicating the function value. The area value of a function is deeply related to the luminescence amount of the photon component expressed by the function. In the present example, based on the coefficient values obtained from the results of exposing simazine to P. subcapitata shown in Table 2, area values were determined for the third function f3(t) in Formula (1) in a range of t=0 to 90 by quadrature by parts with at interval Δt being set equal to 0.1.

Spirulina platensis = assay: Algae growth inhibition, area under growth curve (OECD Test Guideline 201), S. platensis; conditions: 72 hours after exposure, various simazine concentrations (FIG. 9)
Method: The area under the growth curve indicates cell growth, which is a conventional evaluation index of chemical substance impact on algae and is computed in compliance to a method for evaluating the impact of a chemical substance on a general algae (OECD Test Guideline 201). That is, the area under the growth curve is the area under the growth curve obtained by culturing 6 mL of an S. platensis cell suspension, adjusted to have an absorbance at 750 nm of 0.03, under a white fluorescent lamp (50 μmol·m−2·s−1) for 72 hours after chemical substance exposure and measuring, every 24 hours, a cell density as the absorbance at 750 nm.

[3] = simazine exposure concentration 5 μg/L
[4] = simazine exposure concentration 25 μg/L
[5] = simazine exposure concentration 50 μg/L
[6] = simazine exposure concentration 100 μg/L

## CCNc1nc(Cl)nc(NCC)n1 [Simazine, simazine]
[1]
  cell growth (area under the growth curve): inhibited according to the exposure concentration of simazine
[2]; P. subcapitata (FIG. 16)
  variation of evaluation value c3 with simazine exposure concentration: decreases in accordance with the simazine exposure concentration
[2]; P. subcapitata (FIG. 17)
  variation of computed value E with simazine exposure concentration: decreases in accordance with the simazine exposure concentration
[2]; P. subcapitata (FIG. 18)
  variation of area value with simazine exposure concentration: decreases in accordance with the simazine exposure concentration
[2]; early time period (near 0 seconds) of time after excitation
  luminescence amount of delayed luminescence, exposed vs not exposed: increases
[2]; later time period (5 seconds onward) after excitation
  luminescence amount of delayed luminescence, exposed vs not exposed: decreases
[2]; [3]
  Fitting formula value a1: 0.05
  Fitting formula value a2: 0.0037
  Fitting formula value a3: 0.0005
  Fitting formula value b1: −0.5
  Fitting formula value b2: −0.5
  Fitting formula value b3: 6
  Fitting formula value c1: 5.2
  Fitting formula value c2: 4.15
  Fitting formula value c3: 3
  Computed value E: 360
  Area value (quadrature by parts): 24112.1
[2]; [4]
  Fitting formula value a1: 0.05
  Fitting formula value a2: 0.0035
  Fitting formula value a3: 0.0004
  Fitting formula value b1: −0.5
  Fitting formula value b2: −0.5
  Fitting formula value b3: 5
  Fitting formula value c1: 5.2
  Fitting formula value c2: 4.1
  Fitting formula value c3: 2.9
  Computed value E: 290
  Area value (quadrature by parts): 19665.7
[2]; [5]
  Fitting formula value a1: 0.08
  Fitting formula value a2: 0.0044
  Fitting formula value a3: 0.0005
  Fitting formula value b1: −0.5
  Fitting formula value b2: −0.5
  Fitting formula value b3: 3
  Fitting formula value c1: 5.4
  Fitting formula value c2: 4.1
  Fitting formula value c3: 2.9
  Computed value E: 108.75
  Area value (quadrature by parts): 16520.1
[2]; [6]
  Fitting formula value a1: 0.1
  Fitting formula value a2: 0.005
  Fitting formula value a3: 0.005
  Fitting formula value b1: −0.5
  Fitting formula value b2: −0.5
  Fitting formula value b3: 3
  Fitting formula value c1: 5.6
  Fitting formula value c2: 4.1
  Fitting formula value c3: 2.7
  Computed value E: 81
  Area value (quadrature by parts): 4435.7
Spirulina platensis
  cell growth (area under the growth curve): inhibited according to the exposure concentration of simazine
